Molecular target: T1, Endothelial lipase (Homo sapiens, UniProt Q9Y5X9)
T1 sequence (Q9Y5X9 whole entry): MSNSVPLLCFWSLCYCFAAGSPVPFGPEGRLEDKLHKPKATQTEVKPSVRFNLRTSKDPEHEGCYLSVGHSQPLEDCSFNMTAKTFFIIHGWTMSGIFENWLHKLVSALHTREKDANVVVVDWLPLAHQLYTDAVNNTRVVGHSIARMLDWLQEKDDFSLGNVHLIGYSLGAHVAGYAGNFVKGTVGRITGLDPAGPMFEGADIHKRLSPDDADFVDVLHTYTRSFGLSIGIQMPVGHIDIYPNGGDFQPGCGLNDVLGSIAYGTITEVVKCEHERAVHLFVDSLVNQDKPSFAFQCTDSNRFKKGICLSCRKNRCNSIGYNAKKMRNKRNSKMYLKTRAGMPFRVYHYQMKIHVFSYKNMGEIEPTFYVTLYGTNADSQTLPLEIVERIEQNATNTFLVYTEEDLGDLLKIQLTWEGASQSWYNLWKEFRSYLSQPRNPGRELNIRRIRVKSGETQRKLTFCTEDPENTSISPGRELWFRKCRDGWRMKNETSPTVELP
Test: Inhibition Assay: After the present compound dissolved in DMSO was added to become 0.5% DMSO to the reaction buffer consisting of 20 mM tris hydrochloric acid (pH7.4), bovine serum albumin (0.5%), calcium chloride (4 mM), sodium chloride (150 mM) and human HDL (2 mg/ml), the EL enzyme was added (total volume was 20 μl). After 4-hour reaction at 37 C., non-esterified fatty acid (NEFA) generated from HDL by EL was measured with a commercially available assay kit and the amount of NEFA was used as an index of enzyme activity. Considering the enzyme activity without the inhibitor as a control value, the inhibition rate of each concentration of the present compound was calculated, and 50% inhibitory concentration (IC50 value) was calculated from an inhibition curve.

SMILES: N#CC1(NC(=O)Cc2nnc(Cc3nc4ccc(-c5ccc(Cl)s5)c(F)c4s3)o2)CC1
- IC50: 14 nM
